Laboratory results: ChEMBL document CHEMBL1201862, “PubChem BioAssay data set” (2004)
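1) Cells in 96-well plates. 2) Compound, 48 h, 5 concentrations. 3) Linear interpolation between surrounding doses. 4) Unreached endpoint = highest concentration. At the GI50, growth is halved.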 Activity calls are given as the source filed them. Cut-off read from the data, not from the text of the source: active = GI50 up to about 1.1 µM and inactive = higher.

Tests used:
Assay in all cases: inhibition of tumour cell growth, NCI panel, 48 h
CAKI-1 = system: CAKI-1
HCC 2998 = system: HCC 2998
SF-539 = system: SF-539
A549 = system: A549
RXF 393 = system: RXF 393
Hs-578T = system: Hs-578T
BT-549 = system: BT-549
MOLT-4 = system: MOLT-4
MDA-N = system: MDA-N
HOP-92 = system: HOP-92
A498 = system: A498
OVCAR-3 = system: OVCAR-3
SK-MEL-5 = system: SK-MEL-5
NCI/ADR-RES = system: NCI/ADR-RES
NCI-H460 = system: NCI-H460
EKVX = system: EKVX
SK-MEL-28 = system: SK-MEL-28
NCI-H522 = system: NCI-H522
UACC-62 = system: UACC-62
COLO 205 = system: COLO 205
M14 = system: M14
K562 = system: K562
NCI-H23 = system: NCI-H23
SK-OV-3 = system: SK-OV-3
UACC-257 = system: UACC-257
OVCAR-5 = system: OVCAR-5
786-0 = system: 786-0
DU-145 = system: DU-145
RPMI-8226 = system: RPMI-8226
SF-295 = system: SF-295
SR = system: SR
ACHN = system: ACHN
HCT-15 = system: HCT-15
T47D = system: T47D
MCF7 = system: MCF7
HL-60 = system: HL-60
HOP-62 = system: HOP-62
SN12C = system: SN12C
NCI-H226 = system: NCI-H226
HT-29 = system: HT-29
OVCAR-4 = system: OVCAR-4
LOX IMVI = system: LOX IMVI
OVCAR-8 = system: OVCAR-8
Malme-3M = system: Malme-3M
SNB-19 = system: SNB-19
SF-268 = system: SF-268
KM12 = system: KM12
MDA-MB-435 = system: MDA-MB-435
HCT-116 = system: HCT-116
SW-620 = system: SW-620
UO-31 = system: UO-31
TK-10 = system: TK-10
U-251 = system: U-251
PC-3 = system: PC-3
SNB-75 = system: SNB-75
SK-MEL-2 = system: SK-MEL-2
CCRF-CEM = system: CCRF-CEM
IGROV-1 = system: IGROV-1

Measured: GI50

COc1cc(/C=C2/SC(c3ccccc3)N(c3cccc(NC(C)=O)c3)C2=O)cc(OC)c1OC (stereo not drawn)
inactive: CAKI-1 > 100 µM | HCC 2998 > 100 µM | SF-539 49.3 µM | A549 47.4 µM | RXF 393 24.8 µM | Hs-578T 23.9 µM | BT-549 44.7 µM | MOLT-4 31.3 µM | MDA-N 25.5 µM | HOP-92 85.3 µM | A498 > 100 µM | OVCAR-3 60.1 µM | SK-MEL-5 24.8 µM | NCI/ADR-RES 40.7 µM | NCI-H460 71.9 µM | EKVX 50.7 µM | SK-MEL-28 34 µM | NCI-H522 18.2 µM | UACC-62 50.5 µM | COLO 205 41.9 µM | M14 27.7 µM | K562 35.6 µM | NCI-H23 44.9 µM | SK-OV-3 75 µM | UACC-257 67.8 µM | OVCAR-5 > 100 µM | 786-0 81.8 µM | DU-145 92.3 µM | RPMI-8226 30.3 µM | SF-295 58.5 µM | SR 23.4 µM | ACHN > 100 µM | T47D 45.7 µM | MCF7 39.2 µM | HL-60 33.7 µM | HOP-62 81.8 µM | SN12C 91.8 µM | NCI-H226 62.5 µM | HT-29 38.6 µM | OVCAR-4 66.2 µM | LOX IMVI 40.3 µM | OVCAR-8 52.6 µM | Malme-3M 28.8 µM | SNB-19 31 µM | SF-268 67.9 µM | KM12 39.1 µM | MDA-MB-435 35 µM | HCT-116 30.2 µM | SW-620 57.1 µM | UO-31 16.6 µM | TK-10 > 100 µM
46.9 µM: HCT-15

N#CCCC1(CCC#N)S(=O)(=O)OCCOS1(=O)=O
inactive: CAKI-1 40.6 µM | SF-539 8.34 µM | A549 48.1 µM | RXF 393 37.1 µM | Hs-578T 18.2 µM | BT-549 6.04 µM | MOLT-4 24.7 µM | MDA-N 54.3 µM | OVCAR-3 32.1 µM | SK-MEL-5 47.9 µM | U-251 24.7 µM | NCI/ADR-RES 19.2 µM | EKVX > 100 µM | SK-MEL-28 50 µM | NCI-H522 27.1 µM | UACC-62 9.4 µM | COLO 205 85.9 µM | M14 56.8 µM | NCI-H23 36.1 µM | SK-OV-3 51.3 µM | UACC-257 > 100 µM | PC-3 63.4 µM | OVCAR-5 > 100 µM | 786-0 21.6 µM | DU-145 58.3 µM | SNB-75 32.1 µM | RPMI-8226 37 µM | SF-295 8.99 µM | SR 29.6 µM | ACHN 32.4 µM | T47D 43.8 µM | MCF7 34.2 µM | HL-60 23.3 µM | SK-MEL-2 42.2 µM | SN12C 29.6 µM | NCI-H226 41.5 µM | HT-29 45.9 µM | OVCAR-4 20.7 µM | LOX IMVI 18.3 µM | OVCAR-8 89.1 µM | Malme-3M 46.1 µM | SNB-19 48.8 µM | SF-268 32.9 µM | KM12 32 µM | MDA-MB-435 47.6 µM | HCT-116 40.9 µM | SW-620 24.1 µM | UO-31 50.5 µM | CCRF-CEM 28.7 µM | TK-10 > 100 µM
36.8 µM: HCT-15
active: HOP-62 < 0.01 µM

c1ccc(CNC2CC(NCc3ccccn3)CC(NCc3ccccn3)C2)nc1 (stereo not drawn)
inactive: HCC 2998 1.98 µM | A549 2.61 µM | Hs-578T 8.28 µM | BT-549 6.79 µM | MOLT-4 3.96 µM | MDA-N 3.42 µM | HOP-92 3.24 µM | A498 1.82 µM | OVCAR-3 3.33 µM | SK-MEL-5 2.25 µM | NCI-H460 2.6 µM | SK-MEL-28 4.75 µM | NCI-H522 2.62 µM | COLO 205 1.81 µM | SK-OV-3 2.82 µM | UACC-257 6.65 µM | 786-0 3.02 µM | DU-145 3.14 µM | SNB-75 2.97 µM | SF-295 4.18 µM | ACHN 12.5 µM | T47D 4.61 µM | MCF7 2.29 µM | HOP-62 5.47 µM | SK-MEL-2 2.58 µM | SN12C 5.97 µM | NCI-H226 2.32 µM | OVCAR-4 2.88 µM | Malme-3M 3.56 µM | SF-268 4.53 µM | KM12 1.73 µM | MDA-MB-435 3.28 µM | IGROV-1 3.21 µM | HCT-116 2.23 µM | SW-620 4.11 µM | UO-31 16.7 µM | CCRF-CEM 2.92 µM | TK-10 4.58 µM
4.21 µM: HCT-15
